Test results: ChEMBL document CHEMBL1201862, “PubChem BioAssay data set” (2004)
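Following 48 hours of exposure in 96-well plates, responses at five concentrations were used to interpolate endpoints linearly. GI50: concentration for 50% inhibition of growth.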 Active and inactive are the calls of the source. Cut-off read from the data, not from the text of the source: active = GI50 up to about 1.1 µM and inactive = higher.

How the values were obtained:
Test in all cases: NCI-60 cell line screen, 48 h
BT-549 = system: BT-549
CAKI-1 = system: CAKI-1
DU-145 = system: DU-145
HCC 2998 = system: HCC 2998
HOP-92 = system: HOP-92
HT-29 = system: HT-29
MDA-MB-231 = system: MDA-MB-231
OVCAR-3 = system: OVCAR-3
OVCAR-4 = system: OVCAR-4
OVCAR-5 = system: OVCAR-5
OVCAR-8 = system: OVCAR-8
RPMI-8226 = system: RPMI-8226
SF-539 = system: SF-539
SK-MEL-28 = system: SK-MEL-28
SK-MEL-5 = system: SK-MEL-5
SR = system: SR
U-251 = system: U-251
UACC-257 = system: UACC-257
UACC-62 = system: UACC-62
UO-31 = system: UO-31

Compound	GI50 (BT-549)	GI50 (CAKI-1)	GI50 (DU-145)	GI50 (HCC 2998)	GI50 (HOP-92)	GI50 (HT-29)	GI50 (MDA-MB-231)	GI50 (OVCAR-3)	GI50 (OVCAR-4)	GI50 (OVCAR-5)	GI50 (OVCAR-8)	GI50 (RPMI-8226)	GI50 (SF-539)	GI50 (SK-MEL-28)	GI50 (SK-MEL-5)	GI50 (SR)	GI50 (U-251)	GI50 (UACC-257)	GI50 (UACC-62)	GI50 (UO-31)
O=c1[nH]nc(Nc2ccc(Cl)cc2)c2nnn(C3CCCCC3)c12	> 100 µM (inactive)	16.2 µM (inactive)	> 100 µM (inactive)	> 100 µM (inactive)	22.4 µM (inactive)	26.1 µM (inactive)	13.9 µM (inactive)	37.2 µM (inactive)	17 µM (inactive)	> 100 µM (inactive)	14.1 µM (inactive)	50.7 µM (inactive)	> 100 µM (inactive)	> 100 µM (inactive)	> 100 µM (inactive)	7.19 µM (inactive)	25.2 µM (inactive)	> 100 µM (inactive)	> 100 µM (inactive)	> 100 µM (inactive)
COc1ccc(OC)c(C2Cc3cnc4nc(N)nc(N)c4c3C2)c1 (stereo not given)	22.8 µM (inactive)	76.9 µM (inactive)	29.2 µM (inactive)	26.3 µM (inactive)	24.3 µM (inactive)	20.8 µM (inactive)	23.7 µM (inactive)	20.5 µM (inactive)	20.8 µM (inactive)	32.9 µM (inactive)	26.2 µM (inactive)	29.6 µM (inactive)	13.7 µM (inactive)	33.7 µM (inactive)	29.6 µM (inactive)	19.4 µM (inactive)	20.7 µM (inactive)	18.3 µM (inactive)	18.6 µM (inactive)	71.9 µM (inactive)
O=C1C=CC(=O)c2ccc(=O)ccc21	17.7 µM (inactive)	9.25 µM (inactive)	28.1 µM (inactive)	17.2 µM (inactive)	1.89 µM (inactive)	18.4 µM (inactive)	20.5 µM (inactive)	7.85 µM (inactive)	9.29 µM (inactive)	19.9 µM (inactive)	17.5 µM (inactive)	3.15 µM (inactive)	21.8 µM (inactive)	21.4 µM (inactive)	19.7 µM (inactive)	2.02 µM (inactive)	16.4 µM (inactive)	17.1 µM (inactive)	13.7 µM (inactive)	15 µM (inactive)
COc1cccc2cc(C(C)=O)c(=O)oc12	> 100 µM (inactive)	> 100 µM (inactive)	> 100 µM (inactive)	> 100 µM (inactive)	> 100 µM (inactive)	> 100 µM (inactive)	> 100 µM (inactive)	> 100 µM (inactive)	> 100 µM (inactive)	> 100 µM (inactive)	> 100 µM (inactive)	> 100 µM (inactive)	> 100 µM (inactive)	> 100 µM (inactive)	> 100 µM (inactive)	> 100 µM (inactive)	> 100 µM (inactive)	> 100 µM (inactive)	> 100 µM (inactive)	> 100 µM (inactive)
COC1/C=C/C(C)C(OC)CC(O)/C=C/C(C)C(C(C)C(OC)C(C)CCC(=O)C(C)C(C/C=C/N(C)C=O)OC)OC(=O)/C=C/C=C(\C)CC(OC)CC2=CC(=O)O[C@@H](C(C)C(OC)C1)[C@H]2O (stereo not given in full)	0.142 µM (active)	0.0332 µM (active)	0.544 µM (active)	0.175 µM (active)	0.0634 µM (active)	0.0845 µM (active)	0.0395 µM (active)	0.049 µM (active)	0.12 µM (active)	0.177 µM (active)	0.16 µM (active)	0.0536 µM (active)	0.114 µM (active)	0.0767 µM (active)	0.125 µM (active)	0.0929 µM (active)	0.0706 µM (active)	0.11 µM (active)	0.148 µM (active)	0.0998 µM (active)
O=C1CC(c2n[nH]c3ccccc23)C(=O)N1c1ccccc1 (stereo not given)	> 100 µM (inactive)	> 100 µM (inactive)	> 100 µM (inactive)	> 100 µM (inactive)	> 78.2 µM (inactive)	> 100 µM (inactive)	> 100 µM (inactive)	> 100 µM (inactive)	> 100 µM (inactive)	> 100 µM (inactive)	> 100 µM (inactive)	82.8 µM (inactive)	> 100 µM (inactive)	> 100 µM (inactive)	> 100 µM (inactive)	36.5 µM (inactive)	> 100 µM (inactive)	> 100 µM (inactive)	> 100 µM (inactive)	> 100 µM (inactive)
COc1cc(/C=C/C(=O)N[C@@H]2C(=O)N3[C@@H]2SC(C)(C)[C@@H]3C(=O)O)ccc1O	> 100 µM (inactive)	> 100 µM (inactive)	> 100 µM (inactive)	> 100 µM (inactive)	> 100 µM (inactive)	> 100 µM (inactive)	> 100 µM (inactive)	> 100 µM (inactive)	> 100 µM (inactive)	> 100 µM (inactive)	> 100 µM (inactive)	> 100 µM (inactive)	> 100 µM (inactive)	> 100 µM (inactive)	> 100 µM (inactive)	> 100 µM (inactive)	> 100 µM (inactive)	> 100 µM (inactive)	> 100 µM (inactive)	> 100 µM (inactive)
C=CCC1C(O[Si](C)(C)C(C)(C)C)C(CO[Si](C)(C)C(C)(C)C)OC1n1ccc(=O)[nH]c1=O (stereo not given)	1.93 µM (inactive)	1.63 µM (inactive)	1.52 µM (inactive)	1.63 µM (inactive)	1.05 µM (active)	1.44 µM (inactive)	1.79 µM (inactive)	1.6 µM (inactive)	1.15 µM (inactive)	1.28 µM (inactive)	1.7 µM (inactive)	1.4 µM (inactive)	1.6 µM (inactive)	1.58 µM (inactive)	1.51 µM (inactive)	2.07 µM (inactive)	2.2 µM (inactive)	1.68 µM (inactive)	1.73 µM (inactive)	1.36 µM (inactive)
COc1cc2c(c(O)c1OC)C(=O)[C@@H]1CCC(=O)N1C2	> 100 µM (inactive)	> 100 µM (inactive)	> 100 µM (inactive)	> 100 µM (inactive)	71 µM (inactive)	> 100 µM (inactive)	> 100 µM (inactive)	> 100 µM (inactive)	> 100 µM (inactive)	> 100 µM (inactive)	> 100 µM (inactive)	> 100 µM (inactive)	> 100 µM (inactive)	> 100 µM (inactive)	> 100 µM (inactive)	> 100 µM (inactive)	> 100 µM (inactive)	> 100 µM (inactive)	> 100 µM (inactive)	> 100 µM (inactive)
Cc1ccc(S(=O)(=O)N2CCSCCSCCSCCSCC2)cc1	25.4 µM (inactive)	22.4 µM (inactive)	> 100 µM (inactive)	> 100 µM (inactive)	12.3 µM (inactive)	> 100 µM (inactive)	19.5 µM (inactive)	35.5 µM (inactive)	27.8 µM (inactive)	> 100 µM (inactive)	24.3 µM (inactive)	77.1 µM (inactive)	26.9 µM (inactive)	> 88.5 µM (inactive)	43.1 µM (inactive)	> 74.3 µM (inactive)	18.4 µM (inactive)	> 91.2 µM (inactive)	17.1 µM (inactive)	50.2 µM (inactive)
COC(=O)c1c(O)ccc2c1c1c(n2CCc2ccc(OC)c(OC)c2)C(=O)c2ccccc2C1=O	10.9 µM (inactive)	17.5 µM (inactive)	15.6 µM (inactive)	4.29 µM (inactive)	14.6 µM (inactive)	3.13 µM (inactive)	22.4 µM (inactive)	16.3 µM (inactive)	13.7 µM (inactive)	19.7 µM (inactive)	10.5 µM (inactive)	6.55 µM (inactive)	14.4 µM (inactive)	11.6 µM (inactive)	11.4 µM (inactive)	14.8 µM (inactive)	18.4 µM (inactive)	16.6 µM (inactive)	15.2 µM (inactive)	13.7 µM (inactive)
COC(=O)/C=C\C(C#N)(C#N)/N=C/c1ccc(OC)cc1	5.04 µM (inactive)	2.08 µM (inactive)	7.01 µM (inactive)	20.6 µM (inactive)	1.92 µM (inactive)	5.31 µM (inactive)	18 µM (inactive)	2.72 µM (inactive)	1.92 µM (inactive)	21.7 µM (inactive)	2.89 µM (inactive)	0.48 µM (active)	4.99 µM (inactive)	2.7 µM (inactive)	17.8 µM (inactive)	0.681 µM (active)	17.9 µM (inactive)	4.83 µM (inactive)	15.9 µM (inactive)	2.25 µM (inactive)
O=C1NC2c3c(I)sc(I)c3C(=O)C2O1 (stereo not given)	5.53 µM (inactive)	3.52 µM (inactive)	14 µM (inactive)	3.95 µM (inactive)	3.38 µM (inactive)	1.7 µM (inactive)	4.49 µM (inactive)	3.31 µM (inactive)	9.35 µM (inactive)	14.3 µM (inactive)	2.84 µM (inactive)	8.15 µM (inactive)	2.56 µM (inactive)	7.41 µM (inactive)	2.46 µM (inactive)	2.96 µM (inactive)	6.78 µM (inactive)	4.97 µM (inactive)	8.99 µM (inactive)	3.82 µM (inactive)
COCOC1C=CCCCC2=CC(C)=C(CC1)O2 (stereo not given)	> 100 µM (inactive)	> 100 µM (inactive)	> 100 µM (inactive)	> 100 µM (inactive)	> 100 µM (inactive)	99.1 µM (inactive)	> 100 µM (inactive)	68.4 µM (inactive)	> 100 µM (inactive)	> 100 µM (inactive)	> 100 µM (inactive)	> 100 µM (inactive)	> 100 µM (inactive)	> 100 µM (inactive)	> 100 µM (inactive)	61.7 µM (inactive)	> 100 µM (inactive)	> 100 µM (inactive)	> 100 µM (inactive)	> 100 µM (inactive)
